The test system of the test is Elongator complex protein 1 (ELP1, also referred to as IKBKAP). Kind of test: IKBKAP-HTRF Assay. In kind it is cell-based, human. As to conditions: FD patient-derived fibroblasts GM04589, 48 hours incubation; for EC2x for IKBKAP protein expression (concentration producing two times the amount of IKBKAP protein vs DMSO vehicle control): 7-point concentration curve; for MFI (maximum fold increase in IKBKAP protein abundance relative to the vehicle control): HTRF. The protocol: The assay is used for the quantitative determination of Elongator complex protein 1 (ELP1, also referred to as IKBKAP) concentration in cell lysates using the HTRF® (Homogeneous Time-Resolved Fluorescence) technology. IKBKAP is detected in a sandwich HTRF assay by use of an anti-IKAP antibody labeled with a donor and an anti-IKAP antibody labeled with an acceptor.
Cells were thawed and incubated in DMEM-10% FBS for 72 hours. Cells were trypsinized, counted, and re-suspended to a concentration of 50,000 cells/mL in DMEM-10% FBS. A 199 μL, aliquot of the cell suspensions were plated at 10,000 cells per well in a 96 well microtiter plate and incubated for 3 to 5 hours. […] Test compounds were serially diluted 3.16-fold in 100% DMSO to generate a 7-point concentration curve. A 1 μL aliquot of 200× compound solution was transferred to cell-containing wells, and cells were incubated for 48 hours in a cell culture incubator (37° C., 5% CO2, 100% relative humidity). Triplicate samples were set up for each compound concentration. After 48 hours, the supernatant was removed from the cells and 50 μL of the 1× LB4 lysis buffer, containing protease inhibitors, was added to the cells and incubated with shaking at room temperature for 1 hour. A 36 μL aliquot of this lysate was subsequently transferred to the 384-well plate containing 4 μL of the antibody solution (1:50 dilution of anti IKAP d2 and anti-IKAP K(9+8) in detection buffer). The 384-well plate was then centrifuged for 1 minute to bring the solutions to the bottom of the plate and incubated overnight at 4° C. Fluorescence for each well of the plate at 665 nm and 620 nm was measured was on the EnVision plate reader (Perkin Elmer). The AF for each sample is calculated by: […]
wherein Signal is the normalized fluorescence for each sample well and Blank is the average normalized average fluorescence for the Blank control wells.
The maximum fold increase (MFI) in IKBKAP protein abundance for compounds of Formula (I) or a form thereof relative to the vehicle control are provided in Table 1. MFI was calculated by dividing the AF value for each sample well by the sample AF for the vehicle control wells.
The EC2× for IKBKAP protein expression obtained from the 7-point concentration curve generated for each test compound according to the protocol in Biological Example 1 are also provided in Table 1. The term “EC2× for IKBKAP protein expression” is defined as the concentration of test compound that is effective in producing two times the amount of IKBKAP protein in a FD patient cell compared to the amount produced from the DMSO vehicle control.

Take `C[C@H](N)c1sc2c(NCc3ccco3)nc(-c3ccccc3)nc2c1-c1ccccc1` [Cpd 61, 6-[(1S)-1-aminoethyl]-N-[(furan-2-yl)methyl]-2,7-diphenylthieno[3,2-d]pyrimidin-4-amine]: the “EC2x for IKBKAP protein expression (concentration producing two times the amount of IKBKAP protein vs DMSO vehicle control)” value was “* (EC2×>1 μM)” and the “MFI (maximum fold increase in IKBKAP protein abundance relative to the vehicle control)” value is “* (MFI<1.9)”.

For the molecule `CCc1c(C[C@H](C)N)sc2c(NCc3ccco3)nc(Cl)nc12` [Cpd 77, 6-[(2S)-2-aminopropyl]-2-chloro-7-ethyl-N-[(furan-2-yl)methyl]thieno[3,2-d]pyrimidin-4-amine], the “EC2x for IKBKAP protein expression (concentration producing two times the amount of IKBKAP protein vs DMSO vehicle control)” value was “**** (between >0.005 μM and ≤0.02 μM)”; the “MFI (maximum fold increase in IKBKAP protein abundance relative to the vehicle control)” value is recorded as “***** (>4.9)”.

Regarding `Cc1c(C[C@H](C)N)sc2c(NCc3nc(F)cs3)nc(Cl)nc12` [Cpd 92, 6-[(2S)-2-aminopropyl]-2-chloro-N-[(4-fluoro-1,3-thiazol-2-yl)methyl]-7-methylthieno[3,2-d]pyrimidin-4-amine], the “EC2x for IKBKAP protein expression (concentration producing two times the amount of IKBKAP protein vs DMSO vehicle control)” value is reported as “***** (<0.005 μM)” and the “MFI (maximum fold increase in IKBKAP protein abundance relative to the vehicle control)” value is recorded as “***** (>4.9)”.

Take `Cc1c(C[C@H](C)N)sc2c(NCc3ccco3)nc(C(N)=O)nc12` [Cpd 20, 6-[(2S)-2-aminopropyl]-4-{[(furan-2-yl)methyl]amino}-7-methylthieno[3,2-d]pyrimidine-2-carboxamide]: the “EC2x for IKBKAP protein expression (concentration producing two times the amount of IKBKAP protein vs DMSO vehicle control)” value is “* (EC2×>1 μM)”; the “MFI (maximum fold increase in IKBKAP protein abundance relative to the vehicle control)” value was “** (between >1.9 and <2.9)”.

Consider `Cc1c(C[C@H](C)N)sc2c(NCc3ncccn3)nc(Cl)nc12` [Cpd 55, 6-[(2S)-2-aminopropyl]-2-chloro-7-methyl-N-[(pyrimidin-2-yl)methyl]thieno[3,2-d]pyrimidin-4-amine], for which the “EC2x for IKBKAP protein expression (concentration producing two times the amount of IKBKAP protein vs DMSO vehicle control)” value was “*** (between >0.02 μM and ≤0.5 μM)”; the “MFI (maximum fold increase in IKBKAP protein abundance relative to the vehicle control)” value is “*** (between >2.9 and <3.9)”.

Take `Cc1csc(CNc2nc(Cl)nc3c(C)c(C[C@H](C)N)sc23)n1` [Cpd 27, 6-[(2S)-2-aminopropyl]-2-chloro-7-methyl-N-[(4-methyl-1,3-thiazol-2-yl)methyl]thieno[3,2-d]pyrimidin-4-amine]: the “EC2x for IKBKAP protein expression (concentration producing two times the amount of IKBKAP protein vs DMSO vehicle control)” value was “** (between >0.5 μL and ≤1 μM)”; the “MFI (maximum fold increase in IKBKAP protein abundance relative to the vehicle control)” value is “*** (between >2.9 and <3.9)”.

In the case of `Cc1c(C[C@H](C)NC2CCC2)sc2c(NCc3ccco3)nc(Cl)nc12` [Cpd 78, 2-chloro-6-[(2S)-2-(cyclobutylamino)propyl]-N-[(furan-2-yl)methyl]-7-methylthieno[3,2-d]pyrimidin-4-amine], the “EC2x for IKBKAP protein expression (concentration producing two times the amount of IKBKAP protein vs DMSO vehicle control)” value is “*** (between >0.02 μM and ≤0.5 μM)”; the “MFI (maximum fold increase in IKBKAP protein abundance relative to the vehicle control)” value is “*** (between >2.9 and <3.9)”.

For the molecule `Cc1c(C[C@H](C)N)sc2c(NCc3c(F)cncc3F)nc(Cl)nc12` [Cpd 64, 6-[(2S)-2-aminopropyl]-2-chloro-N-[(3,5-difluoropyridin-4-yl)methyl]-7-methylthieno[3,2-d]pyrimidin-4-amine], the “EC2x for IKBKAP protein expression (concentration producing two times the amount of IKBKAP protein vs DMSO vehicle control)” value was “**** (between >0.005 μM and ≤0.02 μM)”; the “MFI (maximum fold increase in IKBKAP protein abundance relative to the vehicle control)” value is “***** (>4.9)”.

For the molecule `Cc1c(C[C@H](C)N)sc2c(NCc3ncc[nH]3)nc(Cl)nc12` [Cpd 73, 6-[(2S)-2-aminopropyl]-2-chloro-N-[(1H-imidazol-2-yl)methyl]-7-methylthieno[3,2-d]pyrimidin-4-amine], the “EC2x for IKBKAP protein expression (concentration producing two times the amount of IKBKAP protein vs DMSO vehicle control)” value was “*** (between >0.02 μM and ≤0.5 μM)”; the “MFI (maximum fold increase in IKBKAP protein abundance relative to the vehicle control)” value is “** (between >1.9 and <2.9)”.

On to `Cc1c(CCCN)sc2c(NCc3ccco3)nc(Cl)nc12` [Cpd 67, 6-(3-aminopropyl)-2-chloro-N-[(furan-2-yl)methyl]-7-methylthieno[3,2-d]pyrimidin-4-amine], for which the “EC2x for IKBKAP protein expression (concentration producing two times the amount of IKBKAP protein vs DMSO vehicle control)” value is “* (EC2×>1 μM)” and the “MFI (maximum fold increase in IKBKAP protein abundance relative to the vehicle control)” value was “* (MFI<1.9)”.

As to `Cc1c(C[C@H](C)N)sc2c(NCc3cnccn3)nc(Cl)nc12` [Cpd 32, 6-[(2S)-2-aminopropyl]-2-chloro-7-methyl-N-[(pyrazin-2-yl)methyl]thieno[3,2-d]pyrimidin-4-amine], the “EC2x for IKBKAP protein expression (concentration producing two times the amount of IKBKAP protein vs DMSO vehicle control)” value is “*** (between >0.02 μM and ≤0.5 μM)”; the “MFI (maximum fold increase in IKBKAP protein abundance relative to the vehicle control)” value was “**** (between >3.9 and <4.9)”.

As to `C[C@H](N)Cc1sc2c(NCc3cccs3)nc(Cl)nc2c1-c1ccc(Cl)cc1` [Cpd 88, 6-[(2S)-2-aminopropyl]-2-chloro-7-(4-chlorophenyl)-N-[(thiophen-2-yl)methyl]thieno[3,2-d]pyrimidin-4-amine], the “EC2x for IKBKAP protein expression (concentration producing two times the amount of IKBKAP protein vs DMSO vehicle control)” value is given as “* (EC2×>1 μM)” and the “MFI (maximum fold increase in IKBKAP protein abundance relative to the vehicle control)” value is “* (MFI<1.9)”.

Turning to `Cc1c(C[C@H](C)N)sc2c(NCc3cnco3)nc(Cl)nc12` [Cpd 75, 6-[(2S)-2-aminopropyl]-2-chloro-7-methyl-N-[(1,3-oxazol-5-yl)methyl]thieno[3,2-d]pyrimidin-4-amine], the “EC2x for IKBKAP protein expression (concentration producing two times the amount of IKBKAP protein vs DMSO vehicle control)” value is “*** (between >0.02 μM and ≤0.5 μM)”; the “MFI (maximum fold increase in IKBKAP protein abundance relative to the vehicle control)” value is “***** (>4.9)”.

Consider `CC[C@H](N)Cc1cc2nc(Cl)nc(NCc3ccco3)c2s1` [Cpd 4, 6-[(2S)-2-aminobutyl]-2-chloro-N-[(furan-2-yl)methyl]thieno[3,2-d]pyrimidin-4-amine], for which the “EC2x for IKBKAP protein expression (concentration producing two times the amount of IKBKAP protein vs DMSO vehicle control)” value was “**** (between >0.005 μM and ≤0.02 μM)”; the “MFI (maximum fold increase in IKBKAP protein abundance relative to the vehicle control)” value is “**** (between >3.9 and <4.9)”.

As for `Cc1c(C[C@H](C)N)sc2c(NCc3ccco3)nc(Cl)nc12` [Cpd 12, 6-[(2S)-2-aminopropyl]-2-chloro-N-[(furan-2-yl)methyl]-7-methylthieno[3,2-d]pyrimidin-4-amine], the “EC2x for IKBKAP protein expression (concentration producing two times the amount of IKBKAP protein vs DMSO vehicle control)” value is reported as “***** (<0.005 μM)” and the “MFI (maximum fold increase in IKBKAP protein abundance relative to the vehicle control)” value is “***** (>4.9)”.

`CC[C@H](N)Cc1sc2c(NCc3ccns3)nc(Cl)nc2c1C` [Cpd 62, 6-[(2S)-2-aminobutyl]-2-chloro-7-methyl-N-[(1,2-thiazol-5-yl)methyl]thieno[3,2-d]pyrimidin-4-amine]: the “EC2x for IKBKAP protein expression (concentration producing two times the amount of IKBKAP protein vs DMSO vehicle control)” value was “**** (between >0.005 μM and ≤0.02 μM)”; the “MFI (maximum fold increase in IKBKAP protein abundance relative to the vehicle control)” value is “***** (>4.9)”.

As for `C[C@H](N)Cc1sc2c(NCc3cccs3)nc(Cl)nc2c1-c1ccccc1` [Cpd 87, 6-[(2S)-2-aminopropyl]-2-chloro-7-phenyl-N-[(thiophen-2-yl)methyl]thieno[3,2-d]pyrimidin-4-amine], the “EC2x for IKBKAP protein expression (concentration producing two times the amount of IKBKAP protein vs DMSO vehicle control)” value is “* (EC2×>1 μM)” and the “MFI (maximum fold increase in IKBKAP protein abundance relative to the vehicle control)” value is “* (MFI<1.9)”.

`Cc1cnc(CNc2nc(Cl)nc3c(C)c(C[C@H](C)N)sc23)s1` [Cpd 31, 6-[(2S)-2-aminopropyl]-2-chloro-7-methyl-N-[(5-methyl-1,3-thiazol-2-yl)methyl]thieno[3,2-d]pyrimidin-4-amine]: the “EC2x for IKBKAP protein expression (concentration producing two times the amount of IKBKAP protein vs DMSO vehicle control)” value was “*** (between >0.02 μM and ≤0.5 μM)”; the “MFI (maximum fold increase in IKBKAP protein abundance relative to the vehicle control)” value was “*** (between >2.9 and <3.9)”.

On to `Cc1c([C@H](C)N)sc2c(NCc3ccco3)nc(Cl)nc12` [Cpd 47, 6-[(1S)-1-aminoethyl]-2-chloro-N-[(furan-2-yl)methyl]-7-methylthieno[3,2-d]pyrimidin-4-amine], for which the “EC2x for IKBKAP protein expression (concentration producing two times the amount of IKBKAP protein vs DMSO vehicle control)” value is “*** (between >0.02 μM and ≤0.5 μM)”; the “MFI (maximum fold increase in IKBKAP protein abundance relative to the vehicle control)” value was “*** (between >2.9 and <3.9)”.

As to `Cc1c(C[C@H](C)N)sc2c(NCc3ccnn3C)nc(Cl)nc12` [Cpd 81, 6-[(2S)-2-aminopropyl]-2-chloro-7-methyl-N-[(1-methyl-1H-pyrazol-5-yl)methyl]thieno[3,2-d]pyrimidin-4-amine], the “EC2x for IKBKAP protein expression (concentration producing two times the amount of IKBKAP protein vs DMSO vehicle control)” value is given as “* (EC2×>1 μM)” and the “MFI (maximum fold increase in IKBKAP protein abundance relative to the vehicle control)” value is recorded as “* (MFI<1.9)”.

The values above are taken from patent publication US20230057568A1, “COMPOUNDS FOR TREATING FAMILIAL DYSAUTONOMIA” (PTC THERAPEUTICS, INC., priority 2019, published 2023).
